# Data as given in publication PMC10252594 (Cancers, 2023).
# Like-named read-outs stand apart in the source and are kept apart here.
# Legend:
# LAPC-4 xenografts = system: LAPC-4 xenografts
# Source text: The xenograft experiment was approved by the Université Laval Animal Care Committee (Comité de Protection des Animaux de l’Université Laval, Québec, QC, Canada) and carried out in an animal facility approved by the Canadian Council on Animal Care (CCAC). Homozygous male Balb/c athymic nude mice (~42 days old, weighing approximately 28 g) were obtained from Charles River Inc. (Saint-Constant, QC, Canada) and housed (4 to 5) in vinyl micro-isolated ventilated cages equipped with air lids. Cages were kept in laminar airflow hoods and maintained in pathogen-limiting conditions. The animals were housed under a controlled environment at 22 ± 3 °C with 50 ± 20% relative humidity and light set at 12 h/day (light on at 07:15) during the acclimatization and study periods. Sterile water and rodent food (Rodent Diet #T.2018.15, Harlan Teklad, Madison, WI, USA) were provided ad libitum.
# After an acclimatization period of 5 days, the mice were inoculated into both flanks by subcutaneous (SC) injection of 4 × 10^6 LAPC-4 cells (Passage 14) in 0.1 mL of growth medium containing 50% Matrigel (BD Biosciences, Mississauga, ON, Canada) via a 2.5-cm long 22-gauge needle. Two weeks later, mice that developed tumors were randomized according to tumor volume, divided into […] groups (Gr-1 to Gr-8), and treated over a period of 28 days. A bilateral orchiectomy was performed under isoflurane-induced anesthesia for Gr-1 but not for Gr-2 to Gr-8. Both Gr-1 (CTX control (CTL), 9 mice, 16 tumors) and Gr-2 (intact CTL, 9 mice, 18 tumors) were treated with 0.1 mL of the vehicle alone (8% DMSO/92% propylene glycol (PG) administered by gavage (PO). Gr-3 (30 mg/kg/PO, 10 mice, 19 tumors) received 0.843 mg of RM-581. Gr-4 (10 mg/kg/PO, 10 mice, 20 tumors) received 0.281 mg of RM-581. Gr-5 (3 mg/kg/PO, 10 mice, 18 tumors) received 0.084 mg of RM-581. Gr-6 (60 mg/kg/SC, 9 mice, 18 tumors) received 1.686 mg of abiraterone. Gr-7 (60 mg/kg/PO, 9 mice, 17 tumors) received 1.686 mg of abiraterone acetate. Gr-8 (4 mg/kg/IP, 9 mice, 17 tumors) received 0.112 mg of docetaxel.
# RM-581 and abiraterone acetate were administered six days a week PO; abiraterone was administered six days a week SC; and docetaxel was administered twice a week by intraperitoneal (IP) injection. RM-581 was first dissolved in DMSO, and thereafter we added PG to obtain the appropriate concentration in the vehicle fluid (8% DMSO/92% PG). Abiraterone acetate and abiraterone were dissolved in 0.3% hydroxypropyl cellulose in saline (0.9% NaCl), while docetaxel was first dissolved in DMSO, and thereafter we added phosphate-buffered saline (PBS) to obtain the proper concentration in the carrier fluid (0.5% DMSO/99.5% PBS). All solutions were prepared one day prior to the initiation of treatment and stored at 4 °C under constant agitation.
# The mice were weighed at the start and end of the protocol. Tumor area (mm^2) was calculated twice a week using two perpendicular diameters (L and W), which were recorded using a caliper, and the formula L/2 × W/2 × π. The area measured on the first day of treatment was fixed at 100%. At the end of the studies and 3 h after the last treatment, the mice were terminally anesthetized, and their final body weights were measured. Tumors, liver, kidney, and total prostate were collected from mice during necropsy, while blood was collected by cardiac puncture. Tissues and plasma were immediately frozen at −80 °C until analysis.
# PC-3 xenograft = system: PC-3 xenograft; design: method as in PMID 34681843; settings: cited from earlier work
# [1] = Tolerated dose of RM-581 in mice (dose escalation); assay type: in vivo
# Experimental: It is important to note that animal death is not an accepted endpoint for CCAC. RM-581 was first dissolved in DMSO, and PG was added to obtain a final 8% concentration of co-solvent DMSO. The injected volume was 0.1 mL, but the number of injections ranged from 1, 2, or 3 to obtain the expected dose. Each week for […] consecutive weeks, an increased dose (60, 120, 240, 360, 480, 600, or 720 mg/kg) of RM-581 was administered by gavage (PO), and the mice were weighed and observed for 7 days to notice any signs of toxicity. The protocol was applied to four groups (Gr) divided as follows: Gr-1: 5 female mice received the vehicle only; Gr-2: 5 male mice received the vehicle only; Gr-3: 5 female mice treated with RM-581; and Gr-4: 5 male mice treated with RM-581.
# LAPC-4 cells = assay: LAPC-4 cell viability proliferation and combination index assays (MTS, 6 days); assay type: cell-based; settings: Homo sapiens, LAPC4, 144 h, LAPC-4, six days of treatment; read-out: IC50, mean of three experiments (Figure 2A)
# LAPC-4 = assay: PCa cell viability proliferation screening (MTS), LAPC-4; assay type: cell-based; settings: Homo sapiens, LAPC4, 72 h, LAPC-4, AR positive, three days
# Experimental: VCaP (4 × 10^4 cells/well) were seeded in 96-well plates in DMEM media supplemented with 10% fetal bovine serum (FBS), penicillin, streptomycin, and sodium pyruvate. 22Rv1 cells (2 × 10^3 cells/well) and LAPC-4 cells (6 × 10^3 cells/well) were seeded in 96-well plates in RPMI media supplemented with 10% FBS, penicillin, streptomycin, and sodium pyruvate. The cells were incubated at 37 °C in a 5% CO2 humidified atmosphere for 24 h before treatment with multiple concentrations of RM-581 dissolved in dimethyl sulfoxide (DMSO). The concentrations used were between 0.01 μM and 50 μM. Treatment lasted for 3 days for all the cell lines except VCaP cells, which were treated for 7 days due to slower proliferation rates. At the end of the assay, 20 μL of MTS (Cell Titer 96 Aqueous, Promega, Nepean, ON, Canada) were added to each well, and the mixture was incubated for 4 h at 37 °C. The plates were subsequently analyzed at 490 nm using a Tecan M-200 microplate reader (Männedorf, Switzerland).
# PC-3 = system: PC-3; design: method as in PMID 34681843; settings: PC-3, AR negative, three days, MTS; cited from earlier work
smiles,measurement,setting,value
C#C[C@]1(O)CC[C@H]2[C@@H]3CCc4cc(OC)c(N5CCN(C(=O)[C@@H]6CCCN6C(=O)c6ccc7ccccc7n6)CC5)cc4[C@H]3CC[C@@]21C [RM-581],time to significant difference with intact (untreated) group,LAPC-4 xenografts; 3 mg/kg PO,14 days
same,tumor growth,"LAPC-4 xenografts; 3 mg/kg PO, 6 days per week",tumors returned to their original size after 22 days
same,time to significant difference with intact (untreated) group,LAPC-4 xenografts; 10 mg/kg PO,7 days
same,tumor size compared with 30 mg/kg group,"LAPC-4 xenografts; 10 mg/kg PO, 6 days per week, day 28",identical at the end of the protocol
same,time to significant difference with intact (untreated) group,LAPC-4 xenografts; 30 mg/kg PO,7 days
same,reduction in the initial tumor size at end of protocol,"LAPC-4 xenografts; 30 mg/kg PO, 6 days per week, day 28",88%
same,effective oral doses for tumor regression,"LAPC-4 xenografts; LAPC-4 xenograft, PO",3 to 30 mg/kg
same,effective oral dose for tumor regression,"PC-3 xenograft; PC-3 xenograft, PO",60 mg/kg
same,FA and cholesterol in tumors,PC-3 xenograft; tumors from PC-3 xenografts,significant decrease
same,therapeutic index,[1]; assuming effective dose of 30 mg/kg,> 24
same,"signs of toxicity, dose escalation","[1]; normal male and female mice, 60, 120, 240, 360, 480, 600 and 720 mg/kg PO weekly",no signs of toxicity
same,"body weight, treated vs control groups","[1]; normal mice, dose escalation up to 720 mg/kg PO, 7 weeks",no significant body weight difference
same,IC50,LAPC-4 cells,430 ± 130 nM
same,IC50,LAPC-4,560 nM
same,IC50,PC-3,1200 nM
